Tests used:
[1] = system: human bone marrow stem cells; assay: Hematopoietic stem cell 14-day colony formation assay; type: cell-based; settings: colonies at 14 days
Method: (FIG. 2A) Cell invasion. Human prostate metastatic cells (PC3, PC3-M), and HPV transformed normal (1532NPTX, I542NPTX) and primary cancer (1532CPTX, 1542CPTX) cells, were treated with 10 μM genistein (G), KBU2046 (46) or vehicle (CO), and after 3 days, cell invasion was measured. Values are mean±SEM. (FIG. 2B) Single cell migration. Cell migration was measured after treatment for 3 days with 10 μM KBU2046 or vehicle (control). Values are mean±SEM. *Denotes Student's t test P value </=0.05, compared to controls. […] Values are mean±SEM. (FIG. 2D) Human cord blood hematopoietic stem cell colony formation assay. Values are the mean±SD number of total, CFU-GM, CFU-GEMM or BFU-E colonies at 14 days after treatment with KBU2046. […]
Additional functional measures of toxicity included a NCI-based screen of the NCI 60-cell line panel (Shoemaker, 2006; herein incorporated by reference in its entirety), expression of estrogen-responsive genes by qRT/PCR (Ding et al., 2007; herein incorporated by reference in its entirety), induction of an estrogen-responsive promoter by luciferase assay (Breen et al., 2013; Catherino and Jordan, 1995; herein incorporated by reference in their entireties), and a hematopoietic stem cell 14-day colony formation assay (Bergan et al., 1996; herein incorporated by reference in its entirety). […] The migration of individual cells was assessed by time-lapse video microscopy.

[2] = system: osteonectin expression in PC3 cells; assay: Gene array screen for differentially expressed genes; type: cell-based, human
Method: FIGS. 21A-C. KBU2046 disrupts osteonectin expression. PC3 cells were treated +/− with 10 uM KBU2046×3 d (A), or were transfected with siRNA to osteonectin (siOST) or non-targeting (siCO) (B), and osteonectin/GAPDH expression measured by qRT/PCR. (C) PC3 cells were transfected with siOST, siCO, treated with +/−KBU2046, and cell invasion measured.
Having identified inhibition of Ser^226 phosphorylation as the molecular target of KBU2046 for inhibition of cell motility, experiments were conducted during development of embodiments herein to identify downstream regulators of its action. PC3 cells with KBU2046, and screened for differentially expressed genes using two different SABiosciences (Qiagen) gene array platforms: Human Metastasis Array and Human Extracellular Matrix and Adhesion Molecule Array. […] No other significant effects were identified. Separate experiments confirmed differential expression by gene-specific qRT/PCR (FIG. 21A). […] Clinically, overexpression of osteonectin in primary PCa has been associated with the development of metastasis to bone.

NCI 60 cell line panel = NCI 60 cell line panel screen; type: cell-based, human; settings: initial screening per DTP protocol
Text: FIG. 8. […] KBU2046 was submitted to the Developmental Therapeutics Program (DTP) of the US National Cancer Institute (NCI), underwent initial screening across the NCI 60 cell line panel per DTP protocol (Shoemaker, 2006; herein incorporated by reference in its entirety), and the resultant COMPARE diagram is depicted.
Additional functional measures of toxicity included a NCI-based screen of the NCI 60-cell line panel (Shoemaker, 2006; herein incorporated by reference in its entirety), expression of estrogen-responsive genes by qRT/PCR (Ding et al., 2007; herein incorporated by reference in its entirety), induction of an estrogen-responsive promoter by luciferase assay (Breen et al., 2013; Catherino and Jordan, 1995; herein incorporated by reference in their entireties), and a hematopoietic stem cell 14-day colony formation assay (Bergan et al., 1996; herein incorporated by reference in its entirety). Protein Data Base (PDB) X-ray crystallographic structural data (PDB IDs: IX7R, IX7J) was used to determine what chemical groups of genistein bound to the ER. The migration of individual cells was assessed by time-lapse video microscopy.

O=C1c2ccccc2OCC1c1ccc(F)cc1 (racemic) [KBU2046, 4′-fluoroisoflavanone]
toxicity to human bone marrow stem cells [1]: not toxic
suppression of osteonectin expression [2]: 2.0 fold
cell toxicity in NCI 60 cell line panel (NCI 60 cell line panel): minimal-to-no cell toxicity

Reference: patent publication US10780076B2, “Inhibition of cancer cell motility” (Northwestern University, priority 2014, dated 2020)
